Laboratory results taken from patent US20030216569A1, “Method of making HIV protease inhibitors” (priority 1993, published 2003).
Where a name gives a salt, the structure may show the parent alone. Read-outs that look alike come from different tables or passages of the source.

Columns and labels:
HIV-1 protease = HIV-1 protease (Human immunodeficiency virus type 1 group M subtype B, UniProt P04585); experiment: Fluorescence HIV-1 Protease Inhibitor Assay (Pandex); type: biochemical; set-up: made in house; host or cells: E. coli K12 L507/pHP10D (NRRL B-18560)
Protocol: A. Preparation of Protease and Gag Fractions
Lyophils of E. coli K12 L507/pHP10D were obtained from the Northern Regional Research Laboratory, Peoria, Ill. 61604, under the accession number NRRL B-18560 (deposited Nov. 14, 1989). The lyophils were decanted into tubes containing 10 ml LB medium (10 g Bacto-tryptone, 5 g Bacto-yeast extract, and 10 g aqueous sodium chloride per liter; the pH was adjusted to 7.5 and incubated at 32° C. overnight).
A small portion of the overnight culture was placed on LB-agar (LB medium with 15 g/L Bacto-agar) plates containing 12.5 micrograms/ml tetracycline in a manner so as to obtain a single colony isolate of E. coli K12 L507/pHP10D. The single colony obtained was inoculated into 10 ml of LB medium containing 12.5 micrograms/ml tetracycline and incubated overnight at 32° C. with vigorous shaking. The 10 ml overnight culture was inoculated into LB medium containing 12.5 micrograms/ml tetracycline and incubated at 32° C. with vigorous shaking until the culture reached mid-log phase. […]
3. Preparation of Protease Fraction
A culture of E. coli K12 L507/pHP10D was grown to mid-log phase at 32° C. in LB media containing 12.5 micrograms/ml tetracycline. The cultivation temperature was quickly elevated to 40° C. to induce gene expression, and the cells were allowed to grow for 2.5 hours at this temperature before the culture was quickly chilled on ice. The cells were centrifuged and the cell pellet was resuspended in 20 ml of 50 mmol MES buffer (pH 6.0) containing 1 mmol EDTA, 1 mmol DTT, 1 mmol PMSF and 10% glycerol (“Buffer A”). Cells were lysed by sonication using a Fischer Model 300 Dismembrator and a microtip probe. Following centrifugation at 27,000×g, the supernatant was diluted to a total volume of 60 ml with Buffer A and loaded onto a 2.0×19 cm QAE-Sepharose column (1 ml/min, 4° C.), that had been equilibrated in Buffer A. The column was washed isocratically for 180 min and then eluted with a gradient eluent of […] aqueous sodium chloride in Buffer A over 120 min. Enzymatic activity was measured by HPLC using the synthetic peptide Ser-Gln-Asn-Tyr-Pro-Ile-Val as described in Margolin et al., Biochem. Biophys. Res. Commun., 167, 554-560 (1990); the production of the p1 peptide (Ser-Gln-Asn-Tyr) was measured.
The active fractions were combined, adjusted to […] 1.2M in ammonium sulfate, and applied to a 2.0×18 cm hexyl agarose column that had been equilibrated in Buffer A containing 1.2M ammonium sulfate. The sample was loaded at a flow rate of 1 ml/min at 4° C., washed with the equilibration buffer for 240 min (1 ml/min) and then eluted using a reverse linear gradient of 1.2-0M ammonium sulfate in Buffer A for 120 min at the same flow rate. The column was then washed isocratically in Buffer A for 120 min.
The active fractions were combined, concentrated to 10 ml using an Amicon stirred cell with a YM-10 membrane and then applied to a MonoS cation exchange column (1.0×10 cm) that had been equilibrated in Buffer A. The sample was loaded at a flow rate of 1 ml/min at 25° C. After washing isocratically for 30 min, the protease was eluted using a linear gradient of 0-0.45M aqueous sodium chloride in Buffer A over 40 min. The column was washed isocratically in Buffer A containing 0.45M aqueous sodium chloride for 30 minutes.
The active fractions were combined and concentrated to 200 microliters using an Amicon stirred cell and a YM-10 membrane and then the protease was applied to a Superose 6 size exclusion column equilibrated in Buffer A containing 0.1M aqueous sodium chloride.

[1] = tested on: Viral SN123 infected CEM cells
Protocol: Purpose: To determine IC50 CC50 for compounds:
Media A [1% DMSO] (100 microliters DMSO+9.9 ml media A)
CEM cells @ [1×10^4] cells/ml (4 plate=40 ml) (6 plate=60 ml)
(need 70 microliters of each)
A-D at [10 mM] in 100% DMSO
4 or 6 u-bottom 96-well plates
4 flat bottom 96-well plates for dilutions
8-10 boxes of sterile costar tips
Approximately 10 reagent trays
1000 cells/well=1×10^4 cells/ml=1000 cells/100 microliters 200 microliters=total volume in a well
Cell Preparation and Plating of Cells, Media A and Media A (1% DMSO)
a. Number a 96-well tissue culture plate for each compound tested, one for a control plate, and one for the control compound.
b. Count cells on hemacytometer and resuspend them in 40 ml or 80 ml of Media A at a concentration of [1×10^4]0 cells/ml.
Counting Cells on a Hemacytomer:
Label two 1.8 ml nuc tubes 1 and 2.
Put 0.5 ml of well mixed CEM cells (in growth phase) in tube 1.
Put 50 micoliters PBS and 40 microliters of trypan blue into tube 2.
Mix up the cells in tube 1 then remove 10 microliters of cells and put them into tube 2.
Mix well in tube 2, then remove 10 microliters of the stained cells and put them on the hemacytometer.
Count the number of cells in the center square of the hemacytometer with the microscope set on 10×.
The concentration of the stock CEM's in cells/ml is as follows:
Cells counted×1×10^5=Concentration of CEM's in [cells/ml].
c. Add 200 microliters Media A to: A1 of places 2-6. These are Blanks. A4-H4 of plate 1. These are Blanks.
d. Add 5 microlicers Media A to all wells of Rows A-D of plates 2-6 except A1 (the top half of each plate).
e. Add 50 microliters of Media A to wells A1-D3 of Plate 1 (the top half of the plate).
f. Add 50 microliters Media A[l% DMSO] to all wells of Columns 1-3 of plate 1.
This puts 1000 cells/well.
h. Put plates in an incubator while doing drug dilutions.
Preparation Control and Test Drugs
(1) Put 60 microliters of DMSO into all wells of Columns 2-12, Rows A-E.
(3) Put 70 microliters of A [10 mM] at 100% DMSO into well B1.
(4) Put 70 microliters of B [10 mM] at 100% DMSO into well C1.
(5) Put 70 microliters of C [10 mM] at 100% DMSO into well D1.
(6) Put 70 microliters of D [10 mM] at 100% DMSO into well E1.
Change tips before each dilution.
(1) In rows A-E of another plate make a row for the first 1:10 dilution to correspond to each compound's 100% DMSO row.
A into Row B for the first 1:10 dilution.
B into Row C for the first 1:10 dilution.
C into Row D for the first 1:10 dilution.
D into Row E for the first 1:10 dilution.
(2) Put 180 microliters of media A into all wells of rows A-E corresponding to the 100% DMSO rows. 2.5 ml needed per row.
(3) Remove 20 microliters from all wells of each row of the 100% DMSO rows and transfer it to the corresponding 1:10 row.
(1) Make a plate for every 3 compounds to be tested.
Use 20 ml of media A per plate.
(3) Transfer 25 microliters of each compound from the row in the 1:10 dilution to the corresponding two rows on the 1:100 dilution plate changing tips before each transfer.
Addition of Viral SN123 to Plates
a. Thaw Sn123 in 37° C. water bath for approximately 10 minutes.
b. Dilute Sn123 1:16 by adding 1 ml of Sn123 to 15 ml of media A.
c. Add 50 microliters of Sn123 [1:16] to wells E1-H12 of plates 2-6 and to wells E1-H3 of plate 1.
Addition of Drugs to Plates
a. Add 50 microliters of the control and test drugs from the rows in the 1:100 dilution plates to the appropriate rows in the final plates (changing tips before each transfer). One row in the 1:100 plate will do 4 rows in the final plate. Leave A1 blank.
b. Incubate all plates 7 days at 37° C. 5% CO2.
c. Do Xtt protocol on day 7 as follows:
d. Preparation of Xtt/PMS Solution: (4 plate=20 ml) (6 plate=30 ml)
100 microliters [100 mM] PMS+4.9 ml PBS=PMS at [2 mM]
(2) Heat 500 ml of H2O in microwave for 5 minutes on high.
(3) Put 20 or 30 ml of phenol red RPMI in a 50 ml centrifuge tube.
(4) Put the RPMI in the beaker of hot water.
(5) Add 20 or 30 mg of XTT to the warmed up RPMI.

[2] = Human immunodeficiency virus 1, CCRF-CEM, read-out: Whole cell IC50 nM
[3] = Human immunodeficiency virus 1, CCRF-CEM, read-out: Whole cell IC90 nM
[4] = value as run, 35B value of the same run in footnote or parentheses, read-out: Pandex IC50 ng/ml (converted)
[5] = Human immunodeficiency virus 1, CCRF-CEM, read-out: Whole cell IC50 nM, CEM cells, values in parentheses are 35B in same assay
[6] = Human immunodeficiency virus 1, CCRF-CEM, read-out: Whole cell IC90 nM, CEM cells, values in parentheses are 35B in same assay
[7] = normalized to positive control (=1.0), * = a calculated average, read-out: Fluorescence Assay IC50 in ng/mL (converted)

Row | Molecule | IC50 (HIV-1 protease; [4]) [nM] | IC50 [1, 5] [nM] | IC90 [1, 6] [nM] | IC50 (HIV-1 protease; [7]) [nM] | other results
1 | Cc1c(O)cccc1C(=O)N[C@@H](CSc1ccccc1)[C@H](O)CN1C[C@H]2CCS[C@H]2C[C@H]1C(=O)NC(C)(C)C (relative stereo) [Example 74 I, [6S-(6R*, 3aS*, 7aR*, 2′S*, 3′S*)]-2-[2′-Hydroxy-3′-phenylthiomethyl-4′-aza-5′-oxo-5′-(2″-methyl-3″-hydroxyphenyl)pentyl]-octahydrothieno[3,2-c]pyridine-6-N-t-butyl carboxamide methanesulfonic acid salt] | – | – | – | – | IC50 (HIV-1 protease; Table 2, read-out: IC50 (Pandex)): 0.3 nM; IC50 [1, 2]: 4.06 nM; IC90 [1, 3]: 9.74 nM
2 | Cc1c(OP(=O)(O)O)cccc1C(=O)N[C@@H](CSc1ccccc1)[C@H](O)CN1C[C@H]2CCCC[C@H]2C[C@H]1C(=O)NC(C)(C)C.Cl (relative stereo) [Example 80, [3S-(3R*, 4aR*, 8aR*, 2′S*, 3′S*)]-2-[2′-Hydroxy-3′-phenylthiomethyl-4′-aza-5′-oxo-5′-(2″-methyl-3″-Hydroxyphenyl)pentyl]-decahydroisoquinoline-3-N-t-butyl carboxamide 3″-Dihydrogen Phosphate Hydrochloride] | 5.85 | 8.99 | 27.9 | – | Pandex % at 22 (HIV-1 protease; at 22 (ng/ml), wrapped cell): 0.3% at
3 | Cc1c(O)cccc1C(=O)N[C@@H](CSc1ccc(F)cc1)[C@H](O)CN1C[C@H]2CCCC[C@H]2C[C@H]1C(=O)NC(C)(C)C (relative stereo) [Example 92, [3S-(3R*, 4aR*, 8aR*, 2′S*, 3′R*)]-2-(2′-Hydroxy-3′-(4′″-fluoro)phenylthiomethyl-4′-aza-5′-oxo-5′-(2″-methyl-3″-hydroxyphenyl)pentyl]-decahydroisoquinoline-3-N-t-butyl carboxamide] | < 0.273 | – | – | – | IC50 [1, 2]: 2.01 nM; IC90 [1, 3]: 57 nM
4 | Cc1c(F)cccc1C(=O)NC(Cc1ccccc1)C(O)CN1CC2CCCCC2CC1C(=O)NC(C)(C)C (stereo not drawn) [Example 7, [3S-(3R*,4aR*,8aR*,2′S*,3′R*)]-2-[2′-Hydroxy-3′-phenylmethyl-4′-aza-5′-oxo-5′-(2″-methyl-3″-fluorophenyl)pentyl] decahydroisoquinoline-3-N-t-butylcarboxamide] | – | 323 | – | 474 | –
5 | Cc1c(O)cccc1C(=O)N[C@@H](CSc1ccccc1)[C@H](O)CN1CCN(Cc2cccnc2)C[C@H]1C(=O)NC(C)(C)C [Example 19] | 0.693 | 16.1 | 42 | 0.528 | –
6 | Cc1ccccc1C(=O)NC(CSc1ccccc1)C(O)CN1CC2CCCCC2CC1C(=O)NC(C)(C)C (stereo not drawn) [Example 29, [3S-(3R*,4aR*,8aR*,2′S*,3′S*)]-2-[2′-Hydroxy-3′-phenylthiomethyl-4′-aza-5′-oxo-5′-(2″-methyl-phenyl)pentyl] decahydroisoquinoline-3-N-t-butylcarboxamide] | 3.62 | 1590 | 4460 | 3.08 | –
7 | Cc1cnccc1C(=O)NC(CSc1ccccc1)C(O)CN1CC2CCCCC2CC1C(=O)NC(C)(C)C (stereo not drawn) [Example 30, [3S-(3R*,4aR*,8aR*,2′S*,3′S*)]-2-[2′-Hydroxy-3′-phenylthiomethyl-4′-aza-5′-oxo-5′-(3″-methyl-pyrid-4″-yl)phentyl] decahydroisoquinoline-3-N-t-butylcarboxamide] | 9.05 | 367 | 736 | 7.6 | –
8 | CC(C)(C)NC(=O)C1CC2CCCCC2CN1CC(O)C(CSc1ccccc1)NC(=O)c1cccc2ncccc12 (stereo not drawn) [Example 31, [3S-(3R*,4aR*,8aR*,2′S*,3′S*)]-2-[2′-Hydroxy-3′-phenylthiomethyl-4′-aza-5′-oxo-5′-(quinolin-5″-yl)pentyl] decahydroisoquinoline-3-N-t-butylcarboxamide] | 5.94 | 430 | 884 | 2.04 | –
9 | CC(C)(C)NC(=O)C1CC2CCCCC2CN1CC(O)C(CSc1ccccc1)NC(=O)c1cccc2c1CCCN2 (stereo not drawn) [Example 32, [3S-(3R*,4aR*,8aR*,2′S*,3′S*)]-2-[2′-Hydroxy-3′-phenylthiomethyl-4′-aza-5′-oxo-5′-(1″,2″,3″,4″-tetrahydroquinolin-5″-yl)pentyl] decahydroisoquinoline-3-N-t-butylcarboxamide] | 2.53 | 539 | 2310 | 0.877 | –
10 | CC(C)(C)NC(=O)[C@@H]1CN(Cc2cccnc2)CCN1C[C@@H](O)[C@H](CSc1ccccc1)NC(=O)c1cccc2c1CCCN2 [Example 33, [3S-(2R*,2′S*,3′S*)]-1-[2′-Hydroxy-3′-phenylthiomethyl-4′-aza-5′-oxo-5′-(1″,2″,3″,4″-tetrahydroquinolin-5″-yl)pentyl]-4-(pyrid-3′″-ylmethyl)piperazine-2N-t-butylcarboxamide] | 3.17 | 39.5 | 200 | 2.69 | –
11 | [2S-(2R*,2′S*,3′S*)]-1-[2′-Hydroxy-3′-phenylthiomethyl-4′-aza-5′-oxo-5′-(quinolin-5″-yl)pentyl]-4-(pyrid-3′″-ylmethyl)piperazine-2N-t-butylcarboxamide [Example 34] | – | – | – | – | Fluorescence Assay IC50 (HIV-1 protease; normalized to positive control (=1.0), * = a calculated average): 4.5 ng/mL; Pandex IC50 ng/ml (HIV-1 protease; value as run, 35B value of the same run in footnote or parentheses): 5.4^b ng/ml; IC50 ([1]; read-out: Whole cell IC50 nM, CEM cells, values in parentheses are 35B in same assay): 149 nM; IC90 ([1]; read-out: Whole cell IC90 nM, CEM cells, values in parentheses are 35B in same assay): 564 nM
